Assay results as given in patent publication US12180226B2, “Spirotricycle RIPK1 inhibitors and methods of uses thereof” (Merck Sharp & Dohme LLC, priority 2021, dated 2024).
Counter-ions that a name gives are not always drawn.

Target: RIPK1 (recombinant GST-RIPK1 kinase domain, residues 1-327) (Homo sapiens (Human), UniProt Q13546)
Experiment: RIPK1-ADP-Glo Enzymatic Assay
Type: biochemical
Details: ADP-Glo; 25 nM GST-RIPK1, 300 μM ATP; assay lower limit ~25 nM; read-out: RIPK1 V0 Ec50
Description: RIPK1-ADP-Glo Enzymatic Assay
The enzymatic activity of RIPK1 is measured using an assay derived from ADP-Glo kit (TMPromega), which provides a luminescent-based ADP detection system. Specifically, the ADP generated by RIPK1 kinase is proportionally detected as luminescent signals in a homogenous fashion. In this context, the assessment of the inhibitory effect of small molecules (EC50) is measured by the effectiveness of the compounds to inhibit the ATP to ADP conversion by RIPK1.
In this assay, the potency (EC50) of each compound was determined from a ten-point (1:3 serial dilution; top compound concentration of 100000 nM) titration curve using the following outlined procedure. The assay bottom or lower limit of confidence is ˜25 nM. To each well of a white ProxiPlus 384 well-plate, 30 nL of compound (1% DMSO in final assay volume of 3 μL) was dispensed, followed by the addition of 2 μL of 1×assay buffer (25 mM Hepes 7.3, 20 mM MgCl2, 50 mM NaCl, 1 mM DTT, 0.005% Tween20, and 0.02% BSA) containing 37.5 nM of GST-RIPK1 (recombinant GST-RIPK1 kinase domain (residues 1-327) enzyme produced from baculovirus-transfected Sf21 cells: MW=62 kDa). Plates were placed in an ambient temperature humidified chamber for a 30-minute pre-incubation with compound. Subsequently, each reaction was initiated by the addition of 1 μL 1×assay buffer containing 900 μM ATP and […] dephosphorylated-MBP substrate. The final reaction in each well of 3 μL consists of 25 nM of GST-RIPK1, 300 μM ATP, and 3 μM dephosphorylated-MBP. Kinase reactions were allowed to proceed for 150 minutes prior to adding ADP-Glo reagents per Promega's outlined kit protocol. Dose-response curves were generated by plotting percent effect (% product conversion; Y-axis) vs. Log10 compound concentrations (X-axis). EC50 values were calculated using a non-linear regression, four-parameters sigmoidal dose-response model.

Sequence of RIPK1 (recombinant GST-RIPK1 kinase domain, residues 1-327) (Q13546 1-327): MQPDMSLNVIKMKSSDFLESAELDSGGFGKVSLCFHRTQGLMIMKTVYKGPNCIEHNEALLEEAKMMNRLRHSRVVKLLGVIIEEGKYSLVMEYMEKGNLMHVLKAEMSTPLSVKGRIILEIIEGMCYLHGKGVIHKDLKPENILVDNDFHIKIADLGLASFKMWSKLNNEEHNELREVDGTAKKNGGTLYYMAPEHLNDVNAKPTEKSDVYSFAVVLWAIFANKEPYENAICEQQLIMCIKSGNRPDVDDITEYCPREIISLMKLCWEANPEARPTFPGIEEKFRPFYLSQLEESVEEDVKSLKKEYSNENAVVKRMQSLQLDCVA

EC50 | Compound
< 25 nM | O=C1N2[C@@H](CC[C@H]2C2CCCCC2)OC12CCN(c1ccnc3c(F)cnn13)CC2 [Example 4.87, (5′S,7a′R)-5′-cyclohexyl-1-(3-fluoropyrazolo [1,5-a]pyrimidin-7-yl)tetrahydro-3′H-spiro[piperidine-4,2′-pyrrolo[2,1-b]oxazol]-3′-one, TFA salt]
244 nM | O=C(c1cc(I)c(I)c(I)c1)N1CCC2(CC1)O[C@@H]1CC[C@@H](c3cc(F)cc(F)c3)N1C2=O [Example 5.65, (5′S,7a′R)-5′-(3,5-difluoro-phenyl)-1-(3,4,5-triiodo-benzoyl)tetrahydro-3′H-spiro[piperidine-4,2′-pyrrolo[2,1-b]oxazol]-3′-one]
82.4 nM | O=C(c1cc(C2CC2)on1)N1CCC2(CC1)O[C@@H]1CC[C@@H](c3cc(F)cc(F)c3)N1C2=O [Example 6.25, (5′S,7a′R)-1-(5-cyclo-propyl-1,2-oxazole-3-carbonyl)-5′-(3,5-difluorophenyl)tetra-hydro-3′H-spiro[piperi-dine-4,2′-pyrrolo[2,1-b][1,3]oxazol]-3′-one]
56 nM | O=C1N2[C@@H](CC[C@H]2c2cc(F)cc(F)c2)OC12CCN(c1cncc3ncnn13)CC2 [Example 13.4, (5′S,7a′R)-1-([1,2,4]triazolo[1,5-a]pyrazin-5-yl)-5′-(3,5-difluorophenyl)tetrahydro-3′H-spiro[piperidine-4,2′-pyrrolo[2,1-b]oxazol]-3′-one, TFA salt]
60 nM | Cc1cccc(C(=O)N2CCC3(CC2)O[C@@H]2CC[C@@H](c4cc(F)cc(F)c4)N2C3=O)n1 [Example 6.13, (5′S,7a′R)-5′-(3,5-difluorophenyl)-1-(6-methylpyridine-2-carbonyl)tetrahydro-3′H-spiro[piperidine-4,2′-pyrrolo[2,1-b] [1,3]oxazol]-3′-one]
357 nM | Cc1cc2c(nc1N1CCC3(CC1)O[C@@H]1CC[C@@H](c4ccccc4)N1C3=O)CNC2=O [Example 4.187, (5′S,7a′R)-1-(3-methyl-5-oxo-6,7-dihydro-5H-pyrrolo[3,4-b]pyridin-2-yl)-5′-phenyltetrahydro-3′H-spiro[piperidine-4,2′-pyrrolo[2,1-b] [1,3]oxazol]-3′-one]
540 nM | COC(=O)c1cc(C)c(N2CCC3(CC2)O[C@@H]2CC[C@@H](c4ccccc4)N2C3=O)nc1C#N [Example 4.188, methyl 2-cyano-5-methyl-6-[(5′S,7a′R)-3′-oxo-5′-phenyltetrahydro-1H,3′H-spiro[piperidine-4,2′-pyrrolo[2,1-b] [1,3]oxazol]-1-yl]pyridine-3-carboxylate]
< 25 nM | N#Cc1cnn2c(N3CCC4(CC3)O[C@@H]3CC[C@@H](c5ccccc5)N3C4=O)ncnc12 [Example 4.218, 4-[(5′S,7a′R)-3′-oxo-5′-phenyltetrahydro-1H,3′H-spiro[piperidine-4,2′-pyrrolo[2,1-b] [1,3]oxazol]-1-yl]pyrazolo[1,5-a] [1,3,5]triazine-8-carbonitrile]
< 25 nM | O=C(c1ccccc1)N1CCC2(CC1)O[C@@H]1CC[C@@H](c3ccc(F)cc3F)N1C2=O [Example 17.14, (5′S,7a′R)-1-(benzenecarbonyl)-5′-(2,4-difluorophenyl)tetrahydro-3′H-spiro[piperidine-4,2′-pyrrolo[2,1-b][1,3]oxazol]-3′-one]
263 nM | O=C(c1cnnc2ccccc12)N1CCC2(CC1)O[C@@H]1CC[C@@H](c3cc(F)cc(F)c3)N1C2=O [Example 6.58, (5′S,7a′R)-1-(cinn-oline-4-carbonyl)-5′-(3,5-difluorophenyl) tetrahydro-3′H-spiro [piperidine-4,2′-pyrrolo[2,1-b][1,3]-oxazol]-3'-one]
< 25 nM | O=C1N2[C@@H](CC[C@H]2c2ccccc2F)OC12CCN(c1ccnc(Cl)c1)CC2 [Example 4.268, (5′S,7a′R)-1-(2-chloropyridin-4-yl)-5′-(2-fluorophenyl)tetrahydro-3′H-spiro[piperidine-4,2′-pyrrolo[2,1-b] [1,3]oxazol]-3′-one]
601 nM | Cc1ncc(C)c(N2CCC3(CC2)O[C@@H]2CC[C@@H](c4ccccc4)N2C3=O)n1 [Example 11.34, (5′S,7a′R)-1-(2,5-dimethylpyrimidin-4-yl)-5′-phenyltetrahydro-3′H-spiro[piperidine-4,2′-pyrrolo[2,1-b][1,3]oxazol]-3′-one]
< 25 nM | O=C(c1cccc(N2CCOCC2)c1)N1CCC2(CC1)O[C@@H]1CC[C@@H](c3cc(F)cc(F)c3)N1C2=O [Example 6.47, (5′S,7a′R)-5′-(3,5-difluorophenyl)-1-[3-(morpholin-4-yl)-benzene-1-carbonyl]-tetrahydro-3′H-spiro [piperidine-4,2′-pyrrolo[2,1-b][1,3]oxazol]-3′-one]
< 25 nM | COc1ccc(F)c(C(=O)N2CCC3(CC2)O[C@@H]2CC[C@@H](c4cccc(F)c4)N2C3=O)c1 [Example 6.131, (5′S,7a′R)-1-(2-fluoro-5-methoxybenzene-1-carbonyl)-5′-(3-fluoro-phenyl)tetrahydro-3′H-spiro[piperidine-4,2′-pyrrolo[2,1-b] [1,3]oxazol]-3′-one]
< 25 nM | O=C(c1ccccc1)N1CCC2(CC1)O[C@@H]1CC[C@@H](c3cccc(F)c3F)N1C2=O [Example 17.10, (5′S,7a′R)-1-benzoyl-5′-(2,3-difluorophenyl)tetrahydro-3′H-spiro[piperidine-4,2′-pyrrolo[2,1-b]oxazol]-3′-one]
452 nM | CCc1cnc(N2CCC3(CC2)O[C@@H]2CC[C@@H](c4cc(F)cc(F)c4)N2C3=O)nc1 [Example 4.60, (5′S,7a′R)-5′-(3,5-difluorophenyl)-1-(5-ethylpyrimidin-2-yl)tetrahydro-3′H-spiro[piperidine-4,2′-pyrrolo[2,1-b] [1,3]oxazol]-3′-one]
92.2 nM | CC1(NC(=O)c2nc(N3CCC4(CC3)O[C@@H]3CC[C@@H](c5cc(F)cc(F)c5)N3C4=O)ncc2F)CC1 [Example 7.11, 2-[(5′S,7a′R)-5′-(3,5-difluorophenyl)-3′-oxotetrahydro-1H,3′H-spiro[piperidine-4,2′-pyrrolo[2,1-b][1,3]oxazol]-1-yl]-5-fluoro-N-(1-methyl-cyclopropyl)pyrimidine-4-carboxamide]
29.1 nM | O=C(c1ccccc1)N1CCC2(CC1)CC1COC(c3cc(F)cc(F)c3)N1C2=O (centres unmarked) [Example 6.163, 1-(benzenecarbonyl)-3′-(3,5-difluoro-phenyl)dihydro-1′H,3′H,5′H-spiro [piperidine-4,6′-pyrrolo[1,2-c][1,3]oxazol]-5′-one]
61.1 nM | O=C1N2[C@@H](CC[C@H]2c2ccccc2)OC12CCN(c1ncc(F)cc1C(F)F)CC2 [Example 11.25, (5′S,7a′R)-1-[3-(difluoromethyl)-5-fluoropyridin-2-yl]-5′-phenyltetrahydro-3′H-spiro[piperidine-4,2′-pyrrolo[2,1-b][1,3]oxazol]-3′-one]
280 nM | O=C(c1cccc2nccnc12)N1CCC2(CC1)O[C@@H]1CC[C@@H](c3cc(F)cc(F)c3)N1C2=O [Example 6.55, (5′S,7a′R)-5′-(3,5-difluorophenyl)-1-(quinoxaline-5-carbon-yl)tetrahydro-3′H-spiro[piperidine-4,2′-pyrrolo[2,1-b][1,3]-oxazol]-3′-one]
